Source: patent publication US6455506B1, “Lyxofuranosyl benzimidazoles as antiviral agents” (SmithKline Beecham Corporation, priority 1997, dated 2002)
Like-named read-outs stand apart in the source and are kept apart here.

Legend:
HCMV [1] = assay: HCMV plaque reduction assay (Towne strain) in HFF cells; assay type: cell-based, Human cytomegalovirus
Protocol: (§1) Stock HCMV was prepared by infecting HFF cells at a multiplicity of infection (m.o.i.) of <0.01 plaque-forming units (p.f.u.) per cell as detailed previously (see Turk, S. R.; Shipman, C., Jr.; Nassiri, M. R.; Genzingler, G.; Krawczyk, S. H.; Townsend, L. B.; Drach, J. C. Pyrrolo[2,3-d]pyrimidine Nucleosides as Inhibitors of Human Cytomegalovirus, Antimicrob. Agents Chemother. 1987, 31, 544-550). High titer HSV-1 stocks were prepared by infecting KB cells (ATCC) at an m.o.i. of <0.1 also as detailed previously (see Turk, S. R.; Shipman, C., Jr.; Nassiri, M. R.; Genzingler, G.; Krawczyk, S. H.; Townsend, L. B.; Drach, J. C. Pyrrolo[2,3-d]pyrimidine Nucleosides as Inhibitors of Human Cytomegalovirus, Antimicrob. Agents Chemother. 1987, 31, 544-550). Virus titers were determined using monolayer cultures of HFF cells for HCMV and monolayer cultures of BSC-1 cells for HSV-1 as described earlier (see Prichard, M. N.; Turk, S. R.; Coleman, L. A.; Engelhardt, S. L.; Shipman, C., Jr.; Drach, J. C. A Microtiter Virus Yield Reduction Assay for the Evaluation of Antiviral Compounds Against Human Cytomegalovirus and Herpes Simplex Virus. J. Virol. Methods 1990, 28, 101-106). Briefly, HFF or BSC-1 cells were planted as described above in 96-well cluster dishes and incubated overnight at 37° C. The next day cultures were inoculated with HCMV or HSV-1 and serially diluted 1:3 across the remaining eleven columns of the 96-well plate. After virus adsorption the inoculum was replaced with fresh medium and cultures were incubated for seven days for HCMV, two or three days for HSV-1. Plaques were enumerated under 20-fold magnification in wells having the dilution which gave 5 to 20 plaques per well. Virus titers were calculated according to the following formula: Titer (p.f.u./mL)=number of plaques×5×3^n; where n represents the nth dilution of the virus used to infect the well in which plaques were enumerated.
(§2) HFF cells in 24-well cluster dishes were infected with approximately 100 p.f.u. of HCMV per cm^2 cell sheet using the procedures detailed above. Following virus adsorption, compounds dissolved in growth medium were added to duplicate wells in four to eight selected concentrations. After incubation at 37° C. for 7 to 10 days, cell sheets were fixed, stained with crystal violet and microscopic plaques enumerated as described above.
(§3) Dose-response relationships were constructed by linearly regressing the percent inhibition of parameters derived in the preceding sections against log drug concentrations. Fifty-percent inhibitory concentrations (IC50's) or IC90's were calculated from the regression lines. Samples containing positive controls (acyclovir for HSV-1, ganciclovir for HCMV, and 2-acetylpyridine thiosemicarbazone for cytotoxicity) were used in all assays.

HCMV [2] = assay: HCMV yield reduction assay (Towne strain) in HFF cells; assay type: cell-based, Human cytomegalovirus
Protocol: as §1
HFF cells were planted as described above in 96-well cluster dishes, incubated overnight, medium removed and the cultures were inoculated with HCMV at a m.o.i. of 0.5 to 1 p.f.u. per cell as reported elsewhere (see Prichard, M. N.; Turk, S. R.; Coleman, L. A.; Engelhardt, S. L.; Shipman, C., Jr.; Drach, J. C. A Microtiter Virus Yield Reduction Assay for the Evaluation of Antiviral Compounds Against Human Cytomegalovirus and Herpes Simplex Virus. J. Virol. Methods 1990, 28, 101-106). After virus adsorption, inoculum was replaced with 0.2 mL of fresh medium containing test compounds. The first row of 12 wells was left undisturbed and served as virus controls. Each well in the second row received an additional 0.1 mL of medium with test compound at three times the desired final concentration. The contents of the 12 wells were mixed by repeated pipetting and then serially diluted 1:3 along the remaining wells. In this manner, six compounds could be tested in duplicate on a single plate with concentrations from […]. Plates were incubated at 37° C. for seven days, subjected to one cycle of freezing and thawing; aliquots from each of the eight wells of a given column were transferred to the first column of a fresh 96-well monolayer culture of HFF cells. Contents were mixed and serially diluted 1:3 across the remaining eleven columns of the secondary plate. Each column of the original primary plate was diluted across a separate plate in this manner. Cultures were incubated, plaques were enumerated, and titers calculated as described above.
as §3

HSV-1 [3] = assay: HSV-1 ELISA in BSC-1 cells; assay type: cell-based, herpes simplex virus 1; conditions: Human alphaherpesvirus 1, quadruplicate wells, read-out: HSV-1 ELISA 50% Inhibitory Concentration (IC50)
Protocol: An ELISA was employed (see Prichard, M. N.; Shipman, C., Jr. A Three Dimensional Model to Analyze Drug-Drug Interactions. Antiviral Res. 1990, 14, 181-206) to detect HSV-1. Ninety-six-well cluster dishes were planted with 10,000 BSC-1 cells per well in 200 μL per well of MEM(E) plus 10% calf serum. After overnight incubation at 37° C., selected drug concentrations in quadruplicate and HSV-1 at a concentration of 100 p.f.u./well were added. Following a 3-day incubation at 37° C., medium was removed, plates were blocked, rinsed, and horse radish peroxidase conjugated rabbit anti-HSV-1 antibody was added. Following removal of the antibody containing solution, plates were rinsed, and then developed by adding 150 μL per well of a solution of tetramethylbenzidine as substrate. The reaction was stopped with H2SO4 and absorbance was read at 450 and 570 nm. Drug effects were calculated as a percentage of the reduction in absorbance in the presence of each drug concentration compared to absorbance obtained with virus in the absence of drug.
as §3

[4] = Visual cytotoxicity in stationary HFF cells; assay type: cell-based; conditions: human; HFF cells, scored at time of HCMV plaque enumeration; read-out: Cytotoxicity visual (IC50)
Protocol: (§4) Two different assays were used for routine cytotoxicity testing. (i) Cytotoxicity produced in stationary HFF cells was determined by microscopic inspection of cells not affected by the virus used in plaque assays (see Turk, S. R.; Shipman, C., Jr.; Nassiri, M. R.; Genzingler, G.; Krawczyk, S. H.; Townsend, L. B.; Drach, J. C. Pyrrolo[2,3-]pyrimidine Nucleosides as Inhibitors of Human Cytomegalovirus, Antimicrob. Agents Chemother. 1987, 31, 544-550). (ii) The effect of compounds during two population doublings of KB cells was determined by crystal violet staining and spectrophotometric quantitation of dye eluted from stained cells as described earlier (see Prichard, M. N.; Prichard, L. E., Baguley, W. A.; Nassiri, M. R.; Shipman, C., Jr. Three-Dimensional Analysis of the Synergistic Cytotoxicity of Ganciclovir and Zidovudine. Antiviral Res. 1991, 35, 1060-1065). Briefly, 96-well cluster dishes were planted with KB cells at 3000-5000 cells per well. After overnight incubation at 37° C., test compound was added in quadruplicate at six to eight concentrations. Plates were incubated at 37° C. for 48 hours in a CO2 incubator, rinsed, fixed with 95% ethanol, and stained with 0.1% crystal violet. Acidified ethanol was added and plates read at 570 nm in a spectrophotometer designed to read 96-well ELISA assay plates.
as §3

[5] = Inhibition of KB cell growth (crystal violet); assay type: cell-based; conditions: human, KB cells; KB cell growth, 48 hours, quadruplicate; read-out: Cytotoxicity growth (IC50)
Protocol: as §4, §3

HCMV Strain AD169 = assay: HCMV plaque reduction assay, strain AD169; assay type: cell-based, Human cytomegalovirus; conditions: Human betaherpesvirus 5, Table 3, read-out: HCMV Strain AD169 plaque 50% Inhibitory Concentration (IC50)
Protocol: as §2, §3

Hepatitis B Virus (HBV) = assay: Activity against Hepatitis B Virus (Jansen et al.); assay type: cell-based; conditions: two separate tests
Protocol: The activity of compounds against Hepatitis B Virus (HBV) was assessed as described in Jansen, R., et al., Antimicrobial Agents and Chemotherapy, Vol. 37, No. 3, pp. 441-447, 1993.

HCMV [6] = conditions: background, literature report; cited from earlier work
HSV-1 [7] = assay: HSV-1 plaque assay (used for DHPG); assay type: cell-based, herpes simplex virus 1; conditions: Human alphaherpesvirus 1; plaque assay used for DHPG instead of ELISA (footnote b); read-out: HSV-1 plaque assay 50% Inhibitory Concentration (IC50)
Protocol: as §1, with “Briefly, HFF or BSC-1 cells were planted as described above in 96-well cluster dishes and incubated overnight at 37° C. The next day cultures were inoculated with HCMV or HSV-1 and serially diluted 1:3 across the remaining eleven columns of the 96-well plate. After virus adsorption the inoculum was replaced with fresh medium and cultures were incubated for seven days for HCMV, two or three days for HSV-1. Plaques were enumerated under 20-fold magnification in wells having the dilution which gave 5 to 20 plaques per well.” left out

[8] = Human betaherpesvirus 5, HFF, Table 3, same data as Table 2, read-out: HCMV Strain Towne plaque 50% Inhibitory Concentration (IC50)
[9] = Human betaherpesvirus 5, Table 2, HFF cells, duplicate, read-out: HCMV plaque 50% Inhibitory Concentration (IC50)
[10] = Human betaherpesvirus 5, HFF, Table 3, same data as Table 2, read-out: HCMV Strain Towne yield 90% Inhibitory Concentration (IC90)
[11] = Human betaherpesvirus 5, Table 2, HFF cells, duplicate, read-out: HCMV yield 90% Inhibitory Concentration (IC90)

Row | Structure (SMILES) | IC50 (HCMV [1]; [8]) [nM] | IC50 (HCMV [1]; [9]) [nM] | IC90 (HCMV [2]; [10]) [nM] | IC90 (HCMV [2]; [11]) [nM] | IC50 (HSV-1 [3]) [nM] | IC50 [4] [nM] | IC50 at 48 h [5] [nM] | IC50 (HCMV Strain AD169) [nM] | IC50 (Hepatitis B Virus (HBV); Hepatitis B virus) [nM] | IC50 (Hepatitis B Virus (HBV)) [nM] | melting point [°C] | inhibition of HCMV (HCMV [6]) | IC50 (HSV-1 [7]) [nM]
1 | OC[C@@H]1O[C@@H](n2c(Br)nc3cc(Cl)c(Cl)cc32)[C@H](O)[C@@H]1O [Compound 5a, 2-Bromo-5,6dichloro-1-(α-L-lyxofuranosyl)benzimidazole] | 2800 | 2800 | 800 | 800 | > 100000 | > 100000 | > 100000 | 800 | 8800 | 16000 | 178 to 179 |  | 
2 | OC[C@H]1O[C@@H](n2c(Br)nc3cc(Cl)c(Cl)cc32)[C@H](O)[C@@H]1O [BDCRB, 2-bromo-5,6-dichloro-1-(β-D-ribofuranosyl)benzimidazole] |  |  |  |  |  |  |  |  |  |  |  | significant inhibitors of HCMV | 
3 | OC[C@H]1O[C@@H](n2c(Cl)nc3cc(Cl)c(Cl)cc32)[C@H](O)[C@@H]1O [TCRB, 2,5,6-trichloro-1-(β-D-ribofuranosyl)benzimidazole, reference compound] | 2900 |  | 1400 |  |  |  |  | 1800 |  |  |  | significant inhibitors of HCMV | 
4 | Nc1nc(O)c2ncn(COC(CO)CO)c2n1 [ganciclovir (DHPG), ganciclovir, reference compound] |  | 7400 ± 6500 |  | 1600 ± 1200 |  | > 100000 | > 100000 |  |  |  |  |  | 3500 ± 2100
